The source of these data is patent publication US20070135307A1, “Inhibition of tuber sprouting” (ACETO AGRICULTURAL CHEMICALS CORP., priority 2005, published 2007).

Test [1] concerns Russet Norkotah potato tubers. Put plainly: Sprout inhibition of stored potato tubers, Russet Norkotah (% OK for fresh pack). The class given is in vivo, Solanum tuberosum. An excerpt:
(§1) The storage system was designed to duplicate a large commercial storage facility in miniature. Drums containing 150-200 pounds of potatoes were sealed and housed in a building in which temperature and humidity could be controlled. Formed in each drum is an inlet in which untreated air (ventilation air) was introduced under a perforated floor to the drum. The ventilation air moves through the pile of potatoes and is exhausted from the top of the drum to the outside of the building.
(§2) This storage ventilation was shut down for a 24 hour duration during and directly after the treatment of the chemicals. Then it is maintained for the duration of the trial, with ventilation air forced through the drums at a rate of 0.5 cubic feet per minute on a three-hour on and a three-hour off schedule.
(§3) In the spray application technique the formulations were mixed with water and sprayed on the newly harvested tubers at a rate of 5 and 10 parts per million (weight of the active to weight of the potatoes) mixed in a water carrier. The mixture was applied at 1 quart per ton of potatoes. The spray was applied via a hand held spray gun propelled with compressed air as the tubers were rotating in a cement mixer drum. This insured that all surface area is coated with the active ingredient.
(§4) The Fogs were all applied with thermal foggers built to duplicate applications of commercial thermal fogging techniques.
(§5) The custom thermal fogger's heat source was an electric hot plate set at 500 degrees F. This temperature is monitored throughout the application with a thermal couple that is inserted in a cavity just below the surface where the chemical is placed. A chamber was attached to the hot plate. A fan was mounted to the top of the chamber. The fogger was attached to the storage container with flexible tubing.
(§6) The fog was delivered to each drum through separate ports. Through the bottom port of the storage drum a perforated stinger was installed that runs the length of the drum. Flexible tubing delivered the fog air mixture from the fogger. The fog air mixture was returned to the thermal fogger through a second flexible tubing that was attached from the top of the storage drum to the bottom of the thermal fogger. The air fog mixture was recirculated through the system for five minutes.
(§7) The potatoes were monitored for sprout activity on a regular basis after treatment. When early sprout activity was observed the potatoes were first evaluated. Then at approximately 30 day intervals, 60 tubers were randomly selected from each treatment. Each tuber was rated for the length of the longest sprout on each tuber. The scale used for the rating system as is follows: • 0-Not Peeping=no sprout or swelling of eye tissue evident. • 1-Peeping=swelling of eye tissue up to a sprout length of 3 mm • 2-sprout length from 3 mm to […]. • 3-sprout length from 1 cm to 3 cm. • 4-sprout length from 3 cm to 5 cm. • 5-sprout length from 5 cm and longer
(§8) Results of each set of 60 tubers were recorded into 6 subsets of 10 tubers each (replicates). The data is summarized into PERCENT OK RE: FRESHPCK (Fresh pack). The PERCENT OK RE: FRESHPCK is the percent of the tubers that are NOT PEEPING and PEEPING categories combined together (i.e., the addition of the percentage of potatoes rated that are in the “0”-Not peeping=(no sprout or swelling of the eye tissue evident) plus “1” Peeping=(swelling of the eye tissue up to a sprout length of 3 mm.).
(§9) Analysis times are approximate days after harvest (DAH)

In test [2] the test system is Russet Burbank potato tubers. The test can be described thus: Sprout inhibition of stored potato tubers, Russet Burbank (% OK for fresh pack). In kind it is in vivo, Solanum tuberosum.
Excerpt: as §1, §2, §3, §4, §5, §6, §7, §8, §9

On to `CCOC1Oc2ccc(OS(C)(=O)=O)cc2C1(C)C` (racemic) [ETH, (RS)-2-ethoxy-2,3-dihydro-3,3-dimethylbenzofuran-5-yl methanesulfonate], for which the “% OK For Fresh Pack, Dormant + sprout up to 3 mm” value (shortened to “% OK For Fresh Pack”) in test [1] (5 ppm Spray, 53 DAH) is on record as 68.3%; in test [1] (5 ppm Spray, 85 DAH), 11.7%; in test [1] (5 ppm Spray, 107 DAH), 0.0%; in test [1] (10 ppm Spray, 53 DAH), 93.3%; in test [1] (10 ppm Spray, 85 DAH), 33.3%; in test [1] (10 ppm Spray, 107 DAH), 3.3%.
Regarding `CC(C)(C)[C@@H](O)[C@@H](Cc1ccc(Cl)cc1)n1cncn1` (racemic) [PAC, (2RS,3RS)-1-(4-chlorophenyl)-4,4-dimethyl-2-(1H-1,2,4-triazol-1-yl)pentan-3-ol], the “% OK For Fresh Pack” value turned out to be 93.3% in test [1] (5 ppm Spray, 53 DAH); 13.3% in test [1] (5 ppm Spray, 85 DAH); 1.7% in test [1] (5 ppm Spray, 107 DAH); 86.7% in test [1] (10 ppm Spray, 53 DAH); 13.3% in test [1] (10 ppm Spray, 85 DAH); 0.0% in test [1] (10 ppm Spray, 107 DAH).
As for `CCCCC(CC)COC(=O)COc1ccc(Cl)cc1Cl` (stereo not drawn) [2,4 D LV, Isoocotyl (2-ethylhexyl) ester of 2,4-dichlorophenoxyacetic acid], the “% OK For Fresh Pack” value in test [2] (5 ppm Spray, 132 DAH) stood at 96.7%; in test [2] (5 ppm Spray, 161 DAH), 30.0%; in test [2] (5 ppm Spray, 191 DAH) it was 8.3%; in test [2] (5 ppm Spray, 223 DAH), 0.0%; in test [2] (5 ppm Spray, 252 DAH), 0.0%; in test [2] (5 ppm Spray, 283 DAH), 0.0%.
Turning to `O=C(O)CCCOc1ccc(Cl)cc1Cl` [2,4 DB, Dimethyl Amine of 4-(2,4-Dichloropenoxy) butyric acid], the “% OK For Fresh Pack” value in test [1] (5 ppm Spray, 53 DAH) was determined as 81.7%; in test [1] (5 ppm Spray, 85 DAH), 3.3%; in test [1] (5 ppm Spray, 107 DAH), 0.0%; in test [1] (10 ppm Spray, 53 DAH), 91.7%; in test [1] (10 ppm Spray, 85 DAH), 11.7%; in test [1] (10 ppm Spray, 107 DAH), 0.0%.
As to `CC(C)OC(=O)Nc1cccc(Cl)c1` [CIPC 98A, isopropyl 3-chlorophenylcarbamate], the “% OK For Fresh Pack” value in test [2] (11 ppm Fog, 132 DAH) amounted to 100.0%; in test [2] (11 ppm Fog, 161 DAH) it was 26.7%; in test [2] (11 ppm Fog, 191 DAH), 0.0%; in test [2] (11 ppm Fog, 223 DAH) it was 0.0%; in test [2] (11 ppm Fog, 252 DAH), 0.0%; in test [2] (11 ppm Fog, 283 DAH), 0.0%. Moreover, the “% OK For Fresh Pack” value is reported as 100.0% in test [2] (16.6 ppm Fog, 132 DAH); 26.7% in test [2] (16.6 ppm Fog, 161 DAH); 0.0% in test [2] (16.6 ppm Fog, 191 DAH); 0.0% in test [2] (16.6 ppm Fog, 223 DAH); 0.0% in test [2] (16.6 ppm Fog, 252 DAH); 0.0% in test [2] (16.6 ppm Fog, 283 DAH).
On to `CC(C)OC(=O)Nc1cccc(Cl)c1` [CIPC A, isopropyl 3-chlorophenylcarbamate], for which the “% OK For Fresh Pack” value is listed as 100.0% in test [1] (16.6 ppm Fog, 53 DAH); 86.7% in test [1] (16.6 ppm Fog, 85 DAH); 86.7% in test [1] (16.6 ppm Fog, 107 DAH).
Turning to `CCNC(=O)[C@@H](C)OC(=O)Nc1ccccc1` [Car, Ethyl-2-(((phenylamino)carbonyl)oxy)promanamide], the “% OK For Fresh Pack” value is 93.3% in test [2] (5 ppm Spray, 132 DAH); 8.3% in test [2] (5 ppm Spray, 161 DAH); 0.0% in test [2] (5 ppm Spray, 191 DAH); 0.0% in test [2] (5 ppm Spray, 223 DAH); 0.0% in test [2] (5 ppm Spray, 252 DAH); 0.0% in test [2] (5 ppm Spray, 283 DAH).
Consider `CC(=O)Nc1cc(NS(=O)(=O)C(F)(F)F)c(C)cc1C` [MEF, N-[2,4-dimethyl-5-[[(trifluoromethyl)sulfonyl]amino]phenyl]acetamide], for which the “% OK For Fresh Pack” value in test [1] (5 ppm Spray, 53 DAH) is 81.7%; in test [1] (5 ppm Spray, 85 DAH), 11.7%; in test [1] (5 ppm Spray, 107 DAH) it was 0.0%; in test [1] (10 ppm Spray, 53 DAH), 93.3%; in test [1] (10 ppm Spray, 85 DAH), 13.3%; in test [1] (10 ppm Spray, 107 DAH), 0.0%.
With `C#CC(C)(C)NC(=O)c1cc(Cl)cc(Cl)c1` [PRO, 3,5-dichloro-N-(1,1-dimethyl-2-propynyl)benzamide], the “% OK For Fresh Pack” value is listed as 100.0% in test [2] (5 ppm Spray, 132 DAH); 83.3% in test [2] (5 ppm Spray, 161 DAH); 71.7% in test [2] (5 ppm Spray, 191 DAH); 61.7% in test [2] (5 ppm Spray, 223 DAH); 60.0% in test [2] (5 ppm Spray, 252 DAH); 50.0% in test [2] (5 ppm Spray, 283 DAH). Also, the “% OK For Fresh Pack” value is given as 100.0% in test [1] (5 ppm Spray, 53 DAH); 90.0% in test [1] (5 ppm Spray, 85 DAH); 18.3% in test [1] (5 ppm Spray, 107 DAH); 100.0% in test [1] (10 ppm Spray, 53 DAH); 80.0% in test [1] (10 ppm Spray, 85 DAH); 28.3% in test [1] (10 ppm Spray, 107 DAH).
